One test deals with T1, hNav1.7 (Homo sapiens, UniProt Q15858).
T1 construct: expressed in transfected cells
In words: Tritiated compound binding (LBA) to membranes from cells expressing hNav1.7 and the β1 subunit, competitive binding. Conditions: competitive binding vs 100 pM [3H]compound, 18 h, room temperature, membranes with hNav1.7 and β1 subunit. How it is done: Tritiated Compound Binding to Membranes
Isolated from Cells that Heterologously Express hNav1.7 and the β1 Subunit
Preparation of membranes containing recombinantly expressed sodium channels: Frozen recombinant cell pellets were thawed on ice and diluted to 4 times the cell pellet weight with ice cold 50 mM Tris HCl, pH 7.4 buffer. The cell suspensions were homogenized on ice using a motorized glass dounce homogeniser. […] The supernatants were collected and centrifuged at 10000×g at 4° C. for 50 min. The pellets were then re-suspended in 100 mM NaCl, 20 mM Tris HCl, pH 7.4 buffer containing 1% v/v protease inhibitors (Calbiochem) and re-homogenized on ice. The homogenized membranes were then processed through a syringe equipped with a 26 gauge needle. Protein concentrations were determined by Bradford Assay and the membranes were stored at −80° C.
Saturation experiments. A representative compound of formula (I) having a methyl group was tritiated. Three tritiums were incorporated in place of methyl hydrogens to generate [^3H]compound. Binding of this radioligand was performed in 5 mL borosilicate glass test tubes at room temperature. Binding was initiated by adding membranes to increasing concentrations of [^3H]compound in 100 mM NaCl, 20 mM Tris HCl, pH 7.4 buffer containing 0.01% w/v bovine serum albumin (BSA) for 18 h. Non-specific binding was determined in the presence of 1 μM unlabeled compound. After 18 h, the reactants were filtered through GF/C glass fiber filters presoaked in 0.5% w/v polyethylene imine. […] [^3H]compound bound to filters was quantified by liquid scintillation counting.
Binding reactions were performed in 96-well polypropylene plates at room temperature for 18 h. In 360 μL, membranes were incubated with 100 pM [^3H]compound and increasing concentrations of Test Compound. Non-specific binding was defined in the presence of 1 μM unlabeled compound. Reactions were transferred and filtered through 96-well glass fiber/C filter plates presoaked with 0.5% polyethylene imine. […] Bound radioactivity was determined by liquid scintillation counting.
Data Analysis: For saturation experiments, non-specific binding was subtracted from total binding to provide specific binding and these values were recalculated in terms of pmol ligand bound per mg protein. Saturation curves were constructed and dissociation constants were calculated using the single site ligand binding model: Beq=(Bmax*X)/(X+Kd), where Beq is the amount of ligand bound at equilibrium, Bmax is the maximum receptor density, Kd is the dissociation constant for the ligand, and X is the free ligand concentration. For competition studies percent inhibition was determined and IC50 values were calculated using a 4 parameter logistic model (% inhibition=(A+((B−A)/(1+((x/C)^D)))) using XLfit, where A and B are the maximal and minimum inhibition respectively, C is the IC50 concentration and D is the (Hill) slope.

In another test the target is T2, human NaV1.7 (Homo sapiens, UniProt Q15858).
T2 construct: permanently transfected with an expression vector containing the full-length cDNA coding for the desired human sodium channel α-subunit; expressed in transfected cells; host or cells: HEK-293
In words: Patch voltage clamp electrophysiology assay (EP), NaV1.7. The class given is cell-based. Conditions: HEK-293 cells stably expressing NaV1.7 with β1 subunit; whole-cell patch clamp, membrane potential −60 mV (inactivated state). How it is done:
The following patch voltage clamp electrophysiology studies were performed on representative compounds of the invention using human embryonic kidney cells (HEK), permanently transfected with an expression vector containing the full-length cDNA coding for the desired human sodium channel α-subunit, grown in culture media containing 10% FBS, 1% PSG, and 0.5 mg/mL G418 at 37° C. with 5% CO2. […] NaV1.7 and NaV1.5 cDNAs (NM_002977 and AC137587; SCN5A, respectively) were stably expressed in HEK-293 cells. The β1 subunit was coexpressed in both the NaV1.7 and NaV1.5 cell lines.
Sodium currents were measured using the patch clamp technique in the whole-cell configuration using either a PatchXpress automated voltage clamp or manually using an Axopatch 200B (Axon Instruments) or Model 2400 (A-M systems) amplifier. The manual voltage clamp protocol was as follows: Borosilicate glass micropipettes were fire-polished to a tip diameter yielding a resistance of 2-4 Mohms in the working solutions. The pipette was filled with a solution comprised of: 5 mM NaCl, 10 mM CsCl, 120 mM CsF, 0.1 mM CaCl2, 2 mM MgCl2, 10 mM HEPES, 10 mM EGTA; and adjusted to pH 7.2 with CsOH. The external solution had the following composition: 140 mM NaCl, 5 mM KCl, 2 mM CaCl2, 1 mM MgCl2, 10 mM HEPES; and adjusted to pH 7.4 with NaOH. In some studies, the external sodium was reduced by equimolar replacement with choline. Osmolarity in the CsF internal and NaCl external solutions was adjusted to 300 mOsm/kg and 310 mOsm/kg with glucose, respectively. All recordings were performed at ambient temperature in a bath chamber with a volume of 150 μL. Control sodium currents were measured in 0.5% DMSO. Controls and representative compounds of the invention were applied to the recording chamber through a 4-pinch or 8-pinch valve bath perfusion system manufactured by ALA Scientific Instruments.
Series resistance compensation was applied (60-80%). […] All statistics in this study are given as mean±SD.
The membrane potential was maintained at a voltage where inactivation of the channel is complete (which was −60 mV for both NaV1.7 and NaV1.5). The voltage is then stepped back to a very negative (Vhold=[…]) voltage for 20 ms and then a test pulse is applied to quantify the compound block. […] The percent decrease in sodium current following wash-on of compound was taken as the percent block of sodium channels.

Structures can show the parent of a compound that is named as a salt.

Broadly, the IC50 is the concentration that inhibits the measured activity by half. The low end stands for greater potency, the high end for weaker potency.

T2 sequence (Q15858 1-1977 isoform Q15858-3): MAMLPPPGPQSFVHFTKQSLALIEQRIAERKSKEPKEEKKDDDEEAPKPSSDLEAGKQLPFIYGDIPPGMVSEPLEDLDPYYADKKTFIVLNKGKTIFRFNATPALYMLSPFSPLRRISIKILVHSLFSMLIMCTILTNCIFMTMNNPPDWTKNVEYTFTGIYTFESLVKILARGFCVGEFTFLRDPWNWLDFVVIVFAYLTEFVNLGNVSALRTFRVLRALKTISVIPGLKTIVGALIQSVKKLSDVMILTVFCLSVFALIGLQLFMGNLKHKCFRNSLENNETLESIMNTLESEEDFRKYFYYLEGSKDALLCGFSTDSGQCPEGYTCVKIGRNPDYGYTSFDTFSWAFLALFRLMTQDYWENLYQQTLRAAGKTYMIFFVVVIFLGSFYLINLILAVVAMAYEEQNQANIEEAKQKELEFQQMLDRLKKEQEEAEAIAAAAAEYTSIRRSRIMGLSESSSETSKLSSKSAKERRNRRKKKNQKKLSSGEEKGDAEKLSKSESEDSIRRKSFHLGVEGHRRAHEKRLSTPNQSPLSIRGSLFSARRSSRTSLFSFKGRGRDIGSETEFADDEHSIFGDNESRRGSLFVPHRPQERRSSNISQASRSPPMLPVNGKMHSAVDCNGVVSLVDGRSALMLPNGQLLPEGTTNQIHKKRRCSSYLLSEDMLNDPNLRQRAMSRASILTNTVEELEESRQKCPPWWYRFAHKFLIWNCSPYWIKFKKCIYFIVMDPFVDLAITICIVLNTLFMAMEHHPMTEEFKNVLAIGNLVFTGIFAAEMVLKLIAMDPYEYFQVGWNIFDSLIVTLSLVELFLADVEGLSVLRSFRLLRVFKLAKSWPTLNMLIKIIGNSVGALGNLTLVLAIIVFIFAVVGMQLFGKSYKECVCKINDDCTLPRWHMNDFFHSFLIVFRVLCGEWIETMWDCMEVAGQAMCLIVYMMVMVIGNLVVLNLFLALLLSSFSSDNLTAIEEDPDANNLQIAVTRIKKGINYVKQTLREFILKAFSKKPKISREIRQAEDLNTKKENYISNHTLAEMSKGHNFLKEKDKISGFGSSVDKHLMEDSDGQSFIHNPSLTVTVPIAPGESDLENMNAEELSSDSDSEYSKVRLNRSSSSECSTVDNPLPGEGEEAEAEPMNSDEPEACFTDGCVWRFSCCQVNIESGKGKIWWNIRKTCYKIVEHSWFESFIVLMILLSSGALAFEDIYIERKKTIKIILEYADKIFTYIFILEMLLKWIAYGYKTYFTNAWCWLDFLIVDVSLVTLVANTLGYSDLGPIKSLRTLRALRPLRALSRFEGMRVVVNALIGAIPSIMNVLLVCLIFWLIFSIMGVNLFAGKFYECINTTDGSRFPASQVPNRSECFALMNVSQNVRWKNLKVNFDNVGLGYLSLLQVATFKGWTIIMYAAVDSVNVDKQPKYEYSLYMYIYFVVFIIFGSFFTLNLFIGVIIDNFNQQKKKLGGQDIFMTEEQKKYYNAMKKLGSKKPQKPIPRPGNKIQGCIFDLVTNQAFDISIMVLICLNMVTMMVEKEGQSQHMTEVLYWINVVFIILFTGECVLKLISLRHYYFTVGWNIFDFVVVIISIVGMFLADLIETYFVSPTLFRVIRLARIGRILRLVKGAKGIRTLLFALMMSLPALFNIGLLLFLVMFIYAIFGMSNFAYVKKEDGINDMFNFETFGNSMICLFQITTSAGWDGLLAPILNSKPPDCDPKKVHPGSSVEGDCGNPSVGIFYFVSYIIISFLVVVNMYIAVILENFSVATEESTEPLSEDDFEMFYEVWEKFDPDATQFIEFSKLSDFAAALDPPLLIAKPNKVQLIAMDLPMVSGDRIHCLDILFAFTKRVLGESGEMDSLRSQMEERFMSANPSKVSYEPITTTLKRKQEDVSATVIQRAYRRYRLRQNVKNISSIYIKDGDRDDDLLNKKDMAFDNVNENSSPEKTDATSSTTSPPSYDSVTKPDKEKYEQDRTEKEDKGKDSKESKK
T2 sequence (Q07699 19-218 partner): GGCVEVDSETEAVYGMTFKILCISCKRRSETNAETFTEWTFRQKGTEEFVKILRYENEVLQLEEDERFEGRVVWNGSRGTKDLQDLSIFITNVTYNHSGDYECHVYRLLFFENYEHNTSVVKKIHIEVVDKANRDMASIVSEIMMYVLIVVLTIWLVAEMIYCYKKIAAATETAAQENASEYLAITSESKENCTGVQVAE
T1 sequence (Q15858 1-1977 isoform Q15858-3): as the sequence (Q15858 1-1977 isoform Q15858-3) above
T1 sequence (Q07699 19-218 partner): as the sequence (Q07699 19-218 partner) above

For `O=C(O)[C@@H]1CCCN1C(=O)c1cc(C2CC2)c(OC2C3CC4CC2CC(Cl)(C4)C3)cc1F` (single isomer, unassigned) [Example 82], the IC50 at hNav1.7 was 1100 nM; against human NaV1.7 it was 1800 nM.

In turn, `O=C(O)[C@@H]1CCCN1C(=O)c1cc(C2CC2)c(OCC2CCN(Cc3nc(-c4ccccc4Cl)no3)CC2)cc1F` [Example 29, (S)-1-(4-((1-((3-(2-chlorophenyl)-1,2,4-oxadiazol-5-yl)methyl)piperidin-4-yl)methoxy)-5-cyclopropyl-2-fluorobenzoyl)pyrrolidine-2-carboxylic acid trifluoroacetic acid salt] displayed an IC50 at hNav1.7 of 629 nM.

`O=C(O)[C@@H]1CCCN1C(=O)c1cc(Cl)c(COc2ccc(OC(F)(F)F)c(Cl)c2)cc1F` [Example 30, (S)-1-(5-chloro-4-((3-chloro-4-(trifluoromethoxy)phenoxy)methyl)-2-fluorobenzoyl)pyrrolidine-2-carboxylic acid] gave an IC50 at hNav1.7 of 345 nM.

`N#CC1(COc2cc(F)c(C(=O)N3CCC[C@H]3C(=O)O)cc2Cl)C2CC3CC(C2)CC1C3` (stereo partly drawn) [Example 31, (S)-1-(5-chloro-4-(((1S,3S,5S,7S)-2-cyanoadamantan-2-yl)methoxy)-2-fluorobenzoyl)pyrrolidine-2-carboxylic acid]: the IC50 on hNav1.7 was > 10000 nM.

On to `N#CC1(COc2cc(F)c(C(=O)N3CCC[C@H]3C(=O)O)cc2C2CC2)C2CC3CC(C2)CC1C3` (stereo partly drawn) [Example 32, (S)-1-(4-(((1S,3S,5S,7S)-2-cyanoadamantan-2-yl)methoxy)-5-cyclopropyl-2-fluorobenzoyl)pyrrolidine-2-carboxylic acid], for which, on hNav1.7, the IC50 was 1540 nM.

`CC(C)(C)OC(=O)N1CC(n2nccc2-c2cc(Cl)ccc2Oc2cc(F)c(C(=O)N3CCC[C@H]3C(=O)O)cc2F)C1` [Example 33, (S)-1-(4-(2-(1-(1-(tert-butoxycarbonyl)azetidin-3-yl)-1H-pyrazol-5-yl)-4-chlorophenoxy)-2,5-difluorobenzoyl)pyrrolidine-2-carboxylic acid]: at hNav1.7, the IC50 is > 10000 nM.

Take `O=C(O)[C@@H]1CCCN1C(=O)c1cc(F)c(Oc2ccc(Cl)cc2-c2ccnn2C2CNC2)cc1F` [Example 34, (S)-1-(4-(2-(1-(azetidin-3-yl)-1H-pyrazol-5-yl)-4-chlorophenoxy)-2,5-difluorobenzoyl)pyrrolidine-2-carboxylic acid trifluoroacetic acid salt]: the IC50 at hNav1.7 was > 10000 nM.

As to `O=C(O)CNC(=O)c1cc(C2CC2)c(OCC23CC4CC(CC(C4)C2)C3)cc1F` [Example 35, 2-(4-(adamantan-1-ylmethoxy)-5-cyclopropyl-2-fluorobenzamido) acetic acid], the IC50 on hNav1.7 worked out at 7830 nM.

Regarding `O=C(NC1(C(=O)O)CC1)c1cc(Cl)c(Oc2ccc(OC(F)(F)F)c(Cl)c2)cc1F` [Example 36, 1-(5-chloro-4-(3-chloro-4-(trifluoromethoxy)phenoxy)-2-fluorobenzamido)-cyclopropanecarboxylic acid], on hNav1.7, the IC50 is > 10000 nM.

Take `O=C(O)[C@@H]1CCCN1C(=O)c1cc(Cl)c(Oc2ccc(OC(F)(F)F)c(Cl)c2)cc1F` [Example 37, (S)-1-(5-chloro-4-(3-chloro-4-(trifluoromethoxy)phenoxy)-2-fluorobenzoyl)-pyrrolidine-2-carboxylic acid]: on hNav1.7, the IC50 was determined as 5230 nM.

In the case of `O=C(O)[C@@H]1CCCN1C(=O)c1cc(C2CC2)c(O[C@@H]2CCCN(Cc3ccc(F)cc3Cl)C2)cc1F` [Example 38, (S)-1-(4-(((R)-1-(2-chloro-4-fluorobenzyl)piperidin-3-yl)oxy)-5-cyclopropyl-2-fluorobenzoyl)pyrrolidine-2-carboxylic acid trifluoroacetic acid salt], the IC50 on hNav1.7 worked out at 152 nM.

The molecule `CC(c1cc(Cl)cc(Cl)c1)N1CCC(COc2cc(F)c(C(=O)N3CCC[C@H]3C(=O)O)cc2C2CC2)CC1` (stereo partly drawn) [Example 39, (2S)-1-(5-cyclopropyl-4-((1-(1-(3,5-dichlorophenyl)ethyl)piperidin-4-yl)methoxy)-2-fluorobenzoyl)pyrrolidine-2-carboxylic acid trifluoroacetic acid salt] registered an IC50 on hNav1.7 of 43.6 nM.

`Cc1cc(C(=O)N2CCC[C@H]2C(=O)O)c(F)cc1OCC12CC3CC(CC(C3)C1)C2` [Example 40, (S)-1-(4-(adamantan-1-ylmethoxy)-2-fluoro-5-methylbenzoyl)pyrrolidine-2-carboxylic acid]: the IC50 at hNav1.7 turned out to be 452 nM.

Take `O=C(O)[C@@H]1CCCN1C(=O)c1cc(Cl)c(OCC23CC4CC(CC(C4)C2)C3)cc1F` [Example 41, (S)-1-(4-(adamantan-1-ylmethoxy)-5-chloro-2-fluorobenzoyl)pyrrolidine-2-carboxylic acid]: the IC50 at hNav1.7 amounted to 640 nM.

Regarding `C[C@]1(COc2cc(F)c(C(=O)N3CCC[C@H]3C(=O)O)cc2C2CC2)CC[C@@H](C(F)(F)F)CC1` [Example 42, cis-(S)-1-(5-cyclopropyl-2-fluoro-4-((1-methyl-4-(trifluoromethyl)-cyclohexyl)methoxy)benzoyl)pyrrolidine-2-carboxylic acid], the IC50 on hNav1.7 was 231 nM.

For the molecule `CC[C@H](C)[C@H](NC(=O)c1cc(C2CC2)c(OCC23CC4CC(CC(C4)C2)C3)cc1F)C(=O)O` [Example 43, (2S,3S)-2-(4-(adamantan-1-ylmethoxy)-5-cyclopropyl-2-fluorobenzamido)-3-methylpentanoic acid], the IC50 on hNav1.7 worked out at 82.3 nM.

In the case of `O=C(O)[C@@H]1CCCN1C(=O)c1cc(Cl)c(OC[C@@H]2C[C@@H]3[C@H](C2)C3(F)F)cc1F` [Example 44], the IC50 on hNav1.7 was ≥ 10000 nM.

For `CN(CC(=O)O)C(=O)c1cc(C2CC2)c(OCC23CC4CC(CC(C4)C2)C3)cc1F` [Example 45, 2-(4-(adamantan-1-ylmethoxy)-5-cyclopropyl-2-fluoro-N-methylbenzamido)acetic acid], the IC50 stood at 8400 nM on hNav1.7 and 11700 nM at human NaV1.7.

Consider `O=C(O)[C@@H]1C[C@H](O)CN1C(=O)c1cc(C2CC2)c(OCC23CC4CC(CC(C4)C2)C3)cc1F` [Example 46, (2S,4S)-1-[4-(1-adamantylmethoxy)-5-cyclopropyl-2-fluoro-benzoyl]-4-hydroxy-pyrrolidine-2-carboxylic acid], for which the figures for the IC50 on hNav1.7 and on human NaV1.7 were 150 nM and 870 nM, respectively.

As for `O=C(O)[C@@H]1CCCN1C(=O)c1cc(Cl)c(Oc2cnc(OCC(F)(F)F)c(Cl)c2)cc1F` [Example 217, (S)-1-(5-Chloro-4-((5-chloro-6-(2,2,2-trifluoroethoxy)pyridin-3-yl)oxy)-2-fluorobenzoyl)pyrrolidine-2-carboxylic acid trifluoroacetate], at hNav1.7, the IC50 came to 2700 nM.

These data come from patent publication US10125098B2, “Therapeutic compounds and methods of use thereof” (GENENTECH, INC., priority 2014, dated 2018).
